Measured values reported in patent publication US20030153009A1, “Method for influencing kinase activity with AG879” (priority 2002, published 2003).

Columns and labels:
PAK1 [1] = conditions: cited from earlier work
[2] = test system: RAS transformation of cells; conditions: in vitro and in vivo (b6); malignant transformation of cells (b7); cited from earlier work
ITK = target: T1, ITK (Homo sapiens, UniProt Q08881); experiment: In vitro kinase assay, TEC family member ITK; format: biochemical; conditions: concentration as high as 10 μM
T1 sequence (Q08881 1-620): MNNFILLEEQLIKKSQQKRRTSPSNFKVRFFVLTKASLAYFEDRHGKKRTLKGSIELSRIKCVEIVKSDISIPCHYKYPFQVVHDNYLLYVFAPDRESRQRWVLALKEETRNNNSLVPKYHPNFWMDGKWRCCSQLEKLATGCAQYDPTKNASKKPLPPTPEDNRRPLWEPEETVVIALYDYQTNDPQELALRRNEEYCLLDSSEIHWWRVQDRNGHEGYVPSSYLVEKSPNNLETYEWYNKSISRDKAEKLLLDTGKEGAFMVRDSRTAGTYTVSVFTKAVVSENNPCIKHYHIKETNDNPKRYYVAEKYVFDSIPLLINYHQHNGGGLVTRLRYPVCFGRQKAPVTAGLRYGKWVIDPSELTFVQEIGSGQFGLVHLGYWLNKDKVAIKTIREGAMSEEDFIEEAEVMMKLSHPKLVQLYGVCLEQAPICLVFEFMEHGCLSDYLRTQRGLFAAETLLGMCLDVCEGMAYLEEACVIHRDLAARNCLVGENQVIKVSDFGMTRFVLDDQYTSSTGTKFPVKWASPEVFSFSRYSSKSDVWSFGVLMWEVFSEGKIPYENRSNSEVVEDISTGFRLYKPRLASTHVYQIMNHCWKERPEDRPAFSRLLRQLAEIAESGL

RAS induced sarcomas = conditions: nude mouse model; cited from earlier work
FLK-1 = conditions: cited from earlier work
PAK1 [3] = experiment: PAK kinase assay on PAK1 immunoprecipitated from AG879-treated RAS cells; format: cell-based; conditions: RAS cells serum starved, AG879 0.01-10 μM for 1 hour; all concentrations tested
Description: RAS cells, which are NIH 3T3 fibroblasts transformed with v-Ha-RAS, were serum starved, overnight, and were then incubated with varying concentrations of AG879 (0.01-10 μM), for 1 hour. Following the hour of culture, the cells were lysed in lysis buffer (40 mM HEPES, pH 7.4, 1% Nonidet P-40, 1 mM EDTA, 100 mM NaCl, 25 mM NaF, 100 μM NaVO3, 1 MM phenylmethyl sulfonyl fluoride, and 100 units/ml aprotonin). Lysates were tested, via Bradford assay, to determine protein content, and those containing 1 mg of protein were admixed with an anti-PAK1 antibody to immunoprecipitate proteins.
Once the proteins were immunoprecipitated, they were analyzed in a PAK kinase assay, as described by Tang, et. al., Mol. Cell Biol 17: 4454-4464 (1997); He, et. al., Cancer J. 7:191-202 (2001), He, et. al., Cancer J 6:243-248 (2000); Obemeier, et. al., EMBO J 17:4328-4339 (1998), all of which are incorporated by reference.

BTK = BTK (Homo sapiens, UniProt Q06187); experiment: In vitro kinase assay, TEC family member BTK; format: biochemical; conditions: concentration as high as 10 μM
Chain of BTK (Q06187 whole entry, species assumed): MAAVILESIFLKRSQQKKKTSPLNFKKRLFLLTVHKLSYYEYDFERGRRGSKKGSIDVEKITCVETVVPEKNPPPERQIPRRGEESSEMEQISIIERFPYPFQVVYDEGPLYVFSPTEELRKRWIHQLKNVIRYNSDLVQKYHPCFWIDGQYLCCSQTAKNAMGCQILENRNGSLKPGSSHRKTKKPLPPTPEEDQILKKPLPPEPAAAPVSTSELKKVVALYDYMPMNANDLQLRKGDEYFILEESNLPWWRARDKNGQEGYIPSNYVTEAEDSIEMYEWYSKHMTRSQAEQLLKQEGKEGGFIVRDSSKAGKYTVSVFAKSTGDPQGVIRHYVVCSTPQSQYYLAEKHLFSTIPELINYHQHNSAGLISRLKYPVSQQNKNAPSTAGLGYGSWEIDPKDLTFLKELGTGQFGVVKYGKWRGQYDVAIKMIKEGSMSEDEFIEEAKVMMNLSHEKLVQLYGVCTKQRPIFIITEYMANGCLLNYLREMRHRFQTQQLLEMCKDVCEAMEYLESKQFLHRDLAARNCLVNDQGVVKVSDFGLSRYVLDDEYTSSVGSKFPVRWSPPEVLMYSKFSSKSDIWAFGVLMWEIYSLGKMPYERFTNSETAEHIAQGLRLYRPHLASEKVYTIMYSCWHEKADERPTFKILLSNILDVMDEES

[4] = test system: RAS cells (NIH 3T3 fibroblasts transformed with v-Ha-RAS); experiment: Colony formation of RAS cells in 0.35% top agar, 3 weeks; format: cell-based; conditions: colonies containing more than 100 cells, average of two experiments, read-out: IC50 for large colony formation
Description: After three weeks, the colonies were stained, and counted, using standard methods. The control used was non-treated cells, plated into the same type of medium.

FAK-ETK interaction = target: T2, FAK-ETK interaction (Mus musculus, UniProt P97504); experiment: FAK association with ETK in RAS cells; format: cell-based
T2 construct: blotted, using either anti-phospo Tyr, anti-ETK, or anti-PAK1 antibodies; endogenous in cells; host or cells: RAS cells (v-Ha-RAS transformed NIH 3T3 fibroblasts)
T2 sequence (P97504 1-651): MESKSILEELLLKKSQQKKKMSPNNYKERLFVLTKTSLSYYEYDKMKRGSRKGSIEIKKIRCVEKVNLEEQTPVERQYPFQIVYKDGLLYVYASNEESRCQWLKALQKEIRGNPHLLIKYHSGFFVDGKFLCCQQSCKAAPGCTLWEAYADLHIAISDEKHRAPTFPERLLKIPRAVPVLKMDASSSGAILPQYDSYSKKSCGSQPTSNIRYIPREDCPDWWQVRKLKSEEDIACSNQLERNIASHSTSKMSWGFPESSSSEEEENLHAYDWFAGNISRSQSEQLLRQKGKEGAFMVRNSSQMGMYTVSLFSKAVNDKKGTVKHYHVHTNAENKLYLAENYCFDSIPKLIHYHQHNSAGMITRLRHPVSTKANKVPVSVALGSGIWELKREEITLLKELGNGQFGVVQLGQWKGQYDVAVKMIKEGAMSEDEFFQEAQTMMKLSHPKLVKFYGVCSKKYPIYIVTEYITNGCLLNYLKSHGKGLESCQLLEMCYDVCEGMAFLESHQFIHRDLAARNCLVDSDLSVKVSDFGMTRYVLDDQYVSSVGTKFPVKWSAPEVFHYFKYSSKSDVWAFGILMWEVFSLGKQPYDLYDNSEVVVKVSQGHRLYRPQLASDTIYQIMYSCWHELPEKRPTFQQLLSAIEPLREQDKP
Text: (§1) In order to determine this, RAS cells were again serum starved, lysed, and immunoprecipitated using an anti-FAK antibody. The precipitates were then blotted, using either anti-phospo Tyr, anti-ETK, or anti-PAK1 antibodies, separately.

GST-PAK1 = GST-PAK1 (Homo sapiens, UniProt Q13153); experiment: Kinase assay with fusion protein GST-PAK1; format: biochemical; conditions: even at 10 μM
Chain of GST-PAK1 (Q13153 whole entry, the tested form may be a part): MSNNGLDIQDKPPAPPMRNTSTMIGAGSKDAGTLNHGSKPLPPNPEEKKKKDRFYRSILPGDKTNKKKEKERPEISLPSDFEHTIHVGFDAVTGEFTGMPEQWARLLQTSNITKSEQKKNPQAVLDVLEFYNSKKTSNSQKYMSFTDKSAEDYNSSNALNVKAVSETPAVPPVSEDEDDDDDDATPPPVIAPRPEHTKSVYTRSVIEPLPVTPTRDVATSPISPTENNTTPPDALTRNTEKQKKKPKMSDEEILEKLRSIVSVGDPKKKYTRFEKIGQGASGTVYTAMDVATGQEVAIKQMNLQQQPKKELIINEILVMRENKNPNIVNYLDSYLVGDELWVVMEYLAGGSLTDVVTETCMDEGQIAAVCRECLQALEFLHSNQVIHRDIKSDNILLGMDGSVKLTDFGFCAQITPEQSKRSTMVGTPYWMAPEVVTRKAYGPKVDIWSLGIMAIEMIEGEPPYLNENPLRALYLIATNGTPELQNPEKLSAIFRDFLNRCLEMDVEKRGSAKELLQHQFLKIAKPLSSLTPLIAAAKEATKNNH
Description: In follow up experiments a fusion protein “GST-PAK1” was prepared, and tested in the same way.

TEC = target: T3, TEC (Homo sapiens, UniProt P42680); experiment: In vitro kinase assay, TEC family member TEC; format: biochemical; conditions: concentration as high as 10 μM
T3 sequence (P42680 1-631): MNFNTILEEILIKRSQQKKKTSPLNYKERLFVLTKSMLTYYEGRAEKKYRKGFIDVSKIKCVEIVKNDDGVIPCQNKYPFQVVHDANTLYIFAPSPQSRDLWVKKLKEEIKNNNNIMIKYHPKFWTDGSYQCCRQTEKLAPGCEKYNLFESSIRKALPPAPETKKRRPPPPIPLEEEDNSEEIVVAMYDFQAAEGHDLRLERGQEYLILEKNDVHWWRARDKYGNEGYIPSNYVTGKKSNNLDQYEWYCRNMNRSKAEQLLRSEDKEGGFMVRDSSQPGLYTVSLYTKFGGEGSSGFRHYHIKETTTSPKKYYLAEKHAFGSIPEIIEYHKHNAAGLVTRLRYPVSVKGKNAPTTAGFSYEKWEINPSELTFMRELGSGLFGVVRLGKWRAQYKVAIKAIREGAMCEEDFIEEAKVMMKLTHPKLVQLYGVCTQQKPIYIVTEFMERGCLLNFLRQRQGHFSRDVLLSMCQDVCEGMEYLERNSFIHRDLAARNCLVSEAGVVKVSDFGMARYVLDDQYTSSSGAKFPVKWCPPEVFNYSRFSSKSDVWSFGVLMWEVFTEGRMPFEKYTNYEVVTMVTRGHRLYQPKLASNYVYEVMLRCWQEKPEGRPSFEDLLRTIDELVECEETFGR

ETK [5] = target: T4, ETK (Mus musculus, UniProt P97504); experiment: Tyrosine phosphorylation of ETK in AG879-treated RAS cells (immunoprecipitation); format: cell-based; parameters: endogenous in cells; host or cells: RAS cells (v-Ha-RAS transformed NIH 3T3 fibroblasts); conditions: 1 hour
T4 sequence (P97504 1-651): T2 sequence (P97504 1-651)
Description: (§2) Experiments were designed to determine if AG879 affected the Tyr activity of ETK. To do so, serum starved RAS cells were treated, with varying concentrations of AG879 for 1 hour. Cell lysates were prepared using, as lysis buffer, 20 mM Tris-HCl (pH 7.5), 100 mM NaCl, 10% glycerol, 1% Nonidet P-40, 10 mM NaF, 100 μM NaVO3, 1 mM phenylmethylsulfonyl fluoride, and 100 units/ml of aprotonin. Lysates were treated either with a rabbit, anti-ETK antibody, as an anti-phospo Tyr antibody, to immunoprecipitate the enzyme, and an ETK kinase assay was performed, in accordance with Chen, et. al., Nat. Cell Biol. 3:439-444 (2001); and Bagheri-Yarmand, et. al., supra, both of which are incorporated by reference. Endogenous PAK1, associated with ETK was used as a substrate, in either the absence, or varying concentrations of AG879.

FAK = target: T5, FAK (Mus musculus, UniProt P34152); experiment: Tyr phosphorylation of FAK in RAS cells (anti-FAK immunoprecipitation, blot); format: cell-based
T5 construct: RAS cells were again serum starved, lysed, and immunoprecipitated using an anti-FAK antibody; endogenous in cells; host or cells: RAS cells (v-Ha-RAS transformed NIH 3T3 fibroblasts)
T5 sequence (P34152 whole entry): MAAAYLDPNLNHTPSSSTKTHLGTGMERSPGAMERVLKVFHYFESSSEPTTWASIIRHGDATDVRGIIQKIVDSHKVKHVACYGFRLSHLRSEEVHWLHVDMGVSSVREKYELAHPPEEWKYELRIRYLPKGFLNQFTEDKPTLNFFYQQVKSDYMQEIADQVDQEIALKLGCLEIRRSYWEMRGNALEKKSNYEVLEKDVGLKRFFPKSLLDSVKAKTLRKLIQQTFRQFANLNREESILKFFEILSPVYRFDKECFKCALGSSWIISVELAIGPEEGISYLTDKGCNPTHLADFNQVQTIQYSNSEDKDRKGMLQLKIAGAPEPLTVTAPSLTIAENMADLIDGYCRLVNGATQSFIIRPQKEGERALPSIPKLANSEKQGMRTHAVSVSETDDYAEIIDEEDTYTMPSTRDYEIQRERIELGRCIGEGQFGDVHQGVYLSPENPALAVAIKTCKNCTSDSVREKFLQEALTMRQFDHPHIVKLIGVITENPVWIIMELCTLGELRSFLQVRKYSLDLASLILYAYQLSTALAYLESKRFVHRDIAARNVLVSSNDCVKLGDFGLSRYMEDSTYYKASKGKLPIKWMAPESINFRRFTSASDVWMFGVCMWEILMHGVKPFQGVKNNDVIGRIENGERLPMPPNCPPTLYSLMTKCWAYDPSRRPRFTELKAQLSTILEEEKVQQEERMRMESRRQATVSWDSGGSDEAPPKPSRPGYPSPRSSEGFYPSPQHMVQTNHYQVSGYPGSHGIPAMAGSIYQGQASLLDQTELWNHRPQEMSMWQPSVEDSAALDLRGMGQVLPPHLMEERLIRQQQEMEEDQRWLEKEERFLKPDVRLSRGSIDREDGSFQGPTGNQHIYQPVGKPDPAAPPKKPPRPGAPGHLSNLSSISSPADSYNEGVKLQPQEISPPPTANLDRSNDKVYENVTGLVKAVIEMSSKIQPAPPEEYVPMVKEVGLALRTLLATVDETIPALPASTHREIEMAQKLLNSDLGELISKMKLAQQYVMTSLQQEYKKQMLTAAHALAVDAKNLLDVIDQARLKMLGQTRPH
Text: as §1

ETK-PAK1 association = target: T6, ETK-PAK1 association (Mus musculus, UniProt P97504); experiment: ETK-PAK1 association in AG879-treated RAS cells; format: cell-based; conditions: 10 nM
T6 construct: RAS cells were again lysed and immunoprecipitated with an anti-ETK antibody; endogenous in cells; host or cells: RAS cells (v-Ha-RAS transformed NIH 3T3 fibroblasts)
T6 sequence (P97504 1-651): T2 sequence (P97504 1-651)
Description: as §2

ErbB2 = ErbB2 (Homo sapiens, UniProt P04626); conditions: cited from earlier work
ETK [6] = target: T4, ETK; experiment: In vitro kinase assay with ETK immunoprecipitated from RAS cells; format: biochemical; parameters: RAS cells were again lysed and immunoprecipitated with an anti-ETK antibody; endogenous in cells; host or cells: RAS cells (v-Ha-RAS transformed NIH 3T3 fibroblasts)
Description: These experiments were designed to determined how AG879 inhibited ETK activity, i.e., was the inhibition direct, or indirect? To test this, RAS cells were again lysed and immunoprecipitated with an anti-ETK antibody, as described supra. Following this, the immunoprecipitates were used in an in vitro kinase assay, using no, or varying concentrations, of AG879 (0.001-10 μM), as described supra. Two, independent experiments, were carried out.

PAK1 [7] = experiment: Tyr phosphorylation of PAK1 in AG879-treated RAS cells; format: cell-based; conditions: 10 nM
Description: as §2

RAS cells = experiment: Anchorage dependent growth, follow up experiments; format: cell-based; conditions: as much as 1 μM
Text: The experiments which follow were designed to address this question.

FAK-PAK1 interaction = FAK-PAK1 interaction in RAS cells; format: cell-based; conditions: 10 nM
Text: as §1

Compound: Cc1ccc(-c2nn(C(C)(C)C)c3ncnc(N)c23)cc1 [PP1]
- RAS induced PAK1 activation (PAK1 [1]): block
- RAS induced transformation [2]: block

Compound: COc1cc(/C=C(\C#N)C(N)=O)cc(CSc2nc3ccccc3s2)c1O [AG825]
- RAS induced PAK1 activation (PAK1 [1]): block
- IC50 (PAK1 [1]; read-out: IC50, block of RAS induced activation of PAK1 and malignant transformation): ~350 nM
- RAS induced transformation [2]: block

Compound: COc1cc2ncnc(Nc3cccc(Cl)c3)c2cc1OC [AG1478]
- RAS induced PAK1 activation (PAK1 [1]): block
- RAS induced transformation [2]: block

Compound: AG879
- inhibitory effect on ITK (ITK): no inhibitory effect
- growth of RAS induced sarcomas in vivo (RAS induced sarcomas): suppressed
- FLK-1 inhibition (FLK-1): inhibitor
- PAK1 kinase activity (PAK1 [3]): blocked quite strongly
- inhibitory effect on BTK (BTK): no inhibitory effect
- IC50 [4]: ~10 nM
- FAK association with ETK (FAK-ETK interaction; 10 nM): not at the lower concentration
- FAK association with ETK (FAK-ETK interaction; 100 nM): suppressed
- inhibition of kinase properties of GST-PAK1 (GST-PAK1): did not inhibit
- inhibitory effect on TEC (TEC): no inhibitory effect
- tyrosine phosphorylation of ETK (ETK [5]; 10 nM): inhibited
- level of the ETK protein (ETK [5]): did not affect
- Tyr phosphorylation of FAK (FAK; 10 nM): not at the lower concentration
- Tyr phosphorylation of FAK (FAK; 100 nM): suppressed
- ETK-PAK1 association (ETK-PAK1 association): suppress
- ErbB2 inhibition (ErbB2): inhibitor
- Tyr phosphorylation of ETK (ETK [6]; 10 nM, ETK immunoprecipitate): inhibited
- Tyr phosphorylation of PAK1 by ETK (ETK [6]; 10 nM, ETK immunoprecipitate): inhibited
- IC50 (ETK [6]; AG879 0.001-10 μM, two independent experiments): ~5 nM
- Tyr phosphorylation of PAK1 (PAK1 [7]): reduced
- effect on anchorage dependent growth (RAS cells): did not effect
- FAK-PAK1 interaction (FAK-PAK1 interaction): inhibit
